Assay type in all cases: cell-based, Hepatitis C virus
Experiment [1] deals with HCV genotype 1a H77 strain subgenomic luciferase replicon. Description: HCV replicon assay, genotype 1a. The following applies: Hepatitis C virus, read-out: 1a IC50 (nM), HCV genotype 1a. The procedure: (§1) The HCV luciferase replicon assay measures the ability of a test compound to inhibit HCV replication in cell culture after 3 days of treatment in a human hepatoma cell line (Huh-7) bearing an HCV replicon containing a luciferase-neomycin phosphotransferase fusion gene. The inhibition of HCV replication was measured by quantification of luciferase protein expression. Briefly, Huh-7 cells containing either the HCV genotype 1a H77 strain or genotype 1b Con1 strain subgenomic luciferase replicon (H1a-luc or Zluc, respectively) were grown in DMEM containing glucose, L-glutamine and sodium pyruvate, 10% fetal bovine serum (FBS), 100 IU/mL penicillin, 100 μg/mL streptomycin, 2 mM GlutaMAX, non-essential amino acids and 0.25 (H1a-luc) or 0.5 (Zluc) mg/mL G418. GlutaMAX was obtained from Invitrogen, Corp.; all other media reagents were obtained from Mediatech, Inc. For dose-response testing, the cells were seeded in 96-well plates at 1×10^4 (H1a-luc) or 7.5×10^3 (Zluc) cells/well in a volume of 50 μL, and incubated at 37° C./5% CO2. Three hours after plating, 50 μL of ten 5-fold serial dilutions of compound were added, and cell cultures were incubated at 37° C./5% CO2 for 72 hours. In all cases, Huh-7 cells lacking the HCV replicon served as negative control. To assess luciferase expression, the media/compound was removed from the plates and ONE-glo Luciferase assay reagent (Promega) was added to each well. The assay plates were shaken for 3 minutes at room temperature and luciferase activity for each well was measured with a 1 sec read time on the Victor^3V multilabel counter using a 700 nm cut-off filter (Perkin Elmer). EC50 values were calculated from dose response curves from the resulting best-fit equations determined by Microsoft Excel and XLfit 4.1 software.
For orientation: In antiviral work, replicon cells carry a viral genome segment that copies itself.

The test system of experiment [2] is HCV 2b. Kind of experiment: HCV replicon assay, genotype 2b. The following applies: Hepatitis C virus, read-out: 2b IC50 (nM), HCV genotype 2b.
For experiment [3], the system named is HCV genotype 1b Con1 strain subgenomic luciferase replicon. Kind of experiment: HCV replicon assay, genotype 1b. The note with it: Hepatitis C virus. As to the method: as §1
The test system of experiment [4] is HCV 1aY93H mutant replicon. Description: HCV replicon assay, genotype 1a Y93H mutant. The following applies: Hepatitis C virus, read-out: 1aY93H IC50 (nM), HCV genotype 1a, Y93H mutant. As to the method:
General procedure: The luciferase replicon transient transfection assay measures the ability of a test compound to inhibit the replication of a transiently-transfected HCV luciferase-bearing wild-type or mutant replicon in cured human hepatoma cells (Huh7.5). The inhibition of HCV replication was measured by quantification of luciferase protein expression. This assay has been validated using a panel of genotype 1a and 1b replicons bearing mutations known to be associated with resistance to BMS-790052. Briefly, subconfluent Huh7.5 cells were electroporated with 10 μg of wild-type or mutant luciferase-bearing HCV replicon RNA. The cells were then seeded in 96-well opaque white plates at 3×10^4 cells/well in 150 μL/well and incubated for 4 hrs at 37° C./5% CO2. Ten 1:5 serial dilutions of each test compound were made in media (DMEM containing glucose, L-glutamine and sodium pyruvate, 10% fetal bovine serum, 100 IU/mL penicillin, 100 μg/mL streptomycin, 2 mM GlutaMAX, and 1×MEM non-essential amino acids (Mediatech, Inc. and Invitrogen Corp.)) at concentrations that were 4× higher than the final concentrations to be tested and 50 μL/well was added to the transfected cells. Untreated, mock-transfected cells served as a negative control of luciferase expression. The plates were incubated at 37° C./5% CO2 for 4 days whereupon the media was removed and 50 μL of ONE-glo luciferase substrate (Promega) was added to each well. The plates were agitated on a rotating platform at room temperature for 3 min and read in a Victor^3V microplate reader (Perkin-Elmer) using a 700 nm cut-off filter with a 1 sec read time. EC50 values were calculated from dose response curves from the resulting best-fit equations determined by Microsoft Excel and XLfit 4.1 software.

Experiment [5] relates to HCV genotype 3a NS5A within the 1b-replicon. Kind of experiment: HCV replicon assay, genotype 3a (NS5A intergenotypic stable cell line). The note with it: Hepatitis C virus, read-out: 3a IC50 (nM), HCV genotype 3a.
From the text: The nucleotide sequences of the NS5A region of genotype 2a (GenBank Accession # AB047639), genotype 3a (GenBank Accession # D17763), and genotype 4a (GenBank Accession # DQ418788) were synthesized by an outside vendor. The NS5A region of each of these genotypes included the first 11 amino acids of the protease recognition sequence of genotype 1b, as well as the last 10 amino acids of genotype 1b. The NS5A gene cassettes were excised with site specific restriction endonucleases and ligated into a ZS11-luciferase genotype 1b backbone (backbone contains the genotype 1b NS3 protease, NS4a, NS4b, and NS5b coding regions) with similarly cut restriction enzyme sites. Thus, the newly constructed plasmid contains a genotype 2a-, 3a- or 4a-specific NS5A gene within the 1b-replicon.
These new intergenotypic plasmids were used to establish stable cell lines. RNA was generated from the NS5A intergenotypic plasmids and used in conjunction with a lipofectin reagent to transfect a cured Huh7 cell line. Transfected cells were selected for with G418. After selection has occurred the stable cell lines were propagated, tested for luciferase activity, and RT-PCR with genotype specific primers (either 1a, 2a, 3a, or 4a). Stable cell lines containing the intergenotypic replicon were then fully sequenced and analyzed for proper expression of NS3, NS5A and NS5B proteins.
Drug titration analysis was performed using the luciferase replicon assay described herein.
as §1

The IC50 is the midpoint of a concentration-inhibition curve. Consider `CCC1(CC)c2ccc(-c3cnc([C@H]4CCCN4C(=O)[C@@H](NC(=O)OC)C4CCOCC4)[nH]3)cc2Oc2ccc3cc(-c4cnc([C@H]5CCCN5C(=O)[C@H](NC(=O)OC)C5CCOCC5)[nH]4)ccc3c21` [Compound 16, methyl [(1R)-2-[(2R)-2-{5-[12,12-diethyl-9-(2-{(2R)-1-[(2S)-2-[(methoxycarbonyl)amino]-2-(tetrahydro-2H-pyran-4-yl)acetyl]pyrrolidin-2-yl}-1H-imidazol-5-yl)-12H-benzo[a]xanthen-3-yl]-1H-imidazol-2-yl}pyrrolidin-1-yl]-2-oxo-1-(tetrahydro-2H-pyran-4-yl)ethyl]carbamate], for which the IC50 stood at 0.0036 nM in experiment [1]; 0.032 nM in experiment [2]; 0.0044 nM in experiment [3]; 0.072 nM in experiment [4]; 0.015 nM in experiment [5].

For the compound `CCC1(CC)c2ccc(-c3cnc([C@@H]4CCCN4C(=O)[C@H](NC(=O)OC)C4CCOCC4)[nH]3)cc2Oc2cc3ccc(-c4cnc([C@@H]5CCCN5C(=O)[C@@H](NC(=O)OC)C5CCOCC5)[nH]4)cc3cc21` [Compound 17, methyl [(1R)-2-[(2S)-2-{5-[12,12-diethyl-9-(2-{(2S)-1-[(2S)-2-[(methoxycarbonyl)amino]-2-(tetrahydro-2H-pyran-4-yl)acetyl]pyrrolidin-2-yl}-1H-imidazol-5-yl)-12H-benzo[b]xanthen-3-yl]-1H-imidazol-2-yl}pyrrolidin-1-yl]-2-oxo-1-(tetrahydro-2H-pyran-4-yl)ethyl]carbamate], the IC50 in experiment [1] is 0.0034 nM; in experiment [2], 0.028 nM; in experiment [3] it was 0.0305 nM; in experiment [4] it was 0.046 nM; in experiment [5], 0.055 nM.

Regarding `COC(=O)N[C@H](C(=O)N1CCC[C@H]1c1ncc(-c2ccc3c(ccc4oc5ccc(-c6cnc([C@@H]7CCCN7C(=O)[C@@H](NC(=O)OC)C(C)C)[nH]6)cc5c(=O)c43)c2)[nH]1)C(C)C` [Compound 25, methyl [(1S)-1-({(2S)-2-[5-(10-{2-[(2S)-1-{(2S)-2-[(methoxycarbonyl)amino]-3-methylbutanoyl}pyrrolidin-2-yl]-1H-imidazol-5-yl}-12-oxo-12H-benzo[a]xanthen-3-yl)-1H-imidazol-2-yl]pyrrolidin-1-yl}carbonyl)-2-methylpropyl]carbamate], the IC50 was 0.167 nM in experiment [1]; at least 100 nM in experiment [2]; 0.107 nM in experiment [3]; at least 100 nM in experiment [4]; at least 1 nM in experiment [5].

Consider `COC(=O)N[C@H](C(=O)N1CCC[C@H]1c1ncc(-c2ccc3c(F)c4oc5ccc(-c6cnc([C@@H]7CCCN7C(=O)[C@@H](NC(=O)OC)C(C)C)[nH]6)cc5c(=O)c4cc3c2)[nH]1)C(C)C` [Compound 26, methyl [(1S)-1-({(2S)-2-[5-(6-fluoro-9-{2-[(2S)-1-{(2S)-2-[(methoxycarbonyl)amino]-3-methylbutanoyl}pyrrolidin-2-yl]-1H-imidazol-5-yl}-12-oxo-12H-benzo[b]xanthen-2-yl)-1H-imidazol-2-yl]pyrrolidin-1-yl}carbonyl)-2-methylpropyl]carbamate], for which the IC50 in experiment [1] was at least 1 nM; in experiment [2], at least 100 nM; in experiment [3], 1 nM; in experiment [4], at least 100 nM; in experiment [5], at least 1 nM.

Regarding `COC(=O)N[C@H](C(=O)N1C[C@H](F)C[C@H]1c1ncc(-c2ccc3c(ccc4oc5ccc(-c6cnc([C@@H]7C[C@@H](F)CN7C(=O)[C@@H](NC(=O)OC)C(C)C)[nH]6)cc5c(=O)c43)c2)[nH]1)C(C)C` [Compound 27, methyl [(1S)-1-({(2S,4R)-4-fluoro-2-[5-(10-{2-[(2S,4R)-4-fluoro-1-{(2S)-2-[(methoxycarbonyl)amino]-3-methylbutanoyl}pyrrolidin-2-yl]-1H-imidazol-5-yl}-12-oxo-12H-benzo[a]xanthen-3-yl)-1H-imidazol-2-yl]pyrrolidin-1-yl}carbonyl)-2-methylpropyl]carbamate], the IC50 in experiment [1] was at least 1 nM; in experiment [2], at least 100 nM; in experiment [3], 0.591 nM; in experiment [4] it was 96.6 nM; in experiment [5], at least 1 nM.

On to `COC(=O)N[C@H](C(=O)N1C[C@H](F)C[C@H]1c1ncc(-c2ccc3c(ccc4oc5cc(-c6cnc([C@@H]7C[C@@H](F)CN7C(=O)[C@@H](NC(=O)OC)C(C)C)[nH]6)ccc5c(=O)c43)c2)[nH]1)C(C)C` [Compound 28, methyl [(1S)-1-({(2S,4R)-4-fluoro-2-[5-(9-{2-[(2S,4R)-4-fluoro-1-{(2S)-2-[(methoxycarbonyl)amino]-3-methylbutanoyl}pyrrolidin-2-yl]-1H-imidazol-5-yl}-12-oxo-12H-benzo[a]xanthen-3-yl)-1H-imidazol-2-yl]pyrrolidin-1-yl}carbonyl)-2-methylpropyl]carbamate], for which the IC50 was 0.0292 nM in experiment [1]; 89.8 nM in experiment [2]; 0.00445 nM in experiment [3]; 1.18 nM in experiment [4]; at least 1 nM in experiment [5].

For `COC(=O)N[C@H](C(=O)N1C[C@H](F)C[C@H]1c1ncc(-c2ccc3c(F)c4oc5ccc(-c6cnc([C@@H]7C[C@@H](F)CN7C(=O)[C@@H](NC(=O)OC)C(C)C)[nH]6)cc5c(=O)c4cc3c2)[nH]1)C(C)C` [Compound 29, methyl [(1S)-1-({(2S,4R)-4-fluoro-2-[5-(6-fluoro-9-{2-[(2S,4R)-4-fluoro-1-{(2S)-2-[(methoxycarbonyl)amino]-3-methylbutanoyl}pyrrolidin-2-yl]-1H-imidazol-5-yl}-12-oxo-12H-benzo[b]xanthen-2-yl)-1H-imidazol-2-yl]pyrrolidin-1-yl}carbonyl)-2-methylpropyl]carbamate], the IC50 was at least 1 nM in experiment [1]; at least 100 nM in experiment [2]; 1 nM in experiment [3]; at least 100 nM in experiment [4]; at least 1 nM in experiment [5].

With `COC(=O)N[C@H](C(=O)N1CCC[C@H]1c1ncc(-c2ccc3c(ccc4oc5cc(-c6cnc([C@@H]7CCCN7C(=O)[C@@H](NC(=O)OC)C(C)C)[nH]6)ccc5c(=O)c43)c2)[nH]1)C(C)C` [Compound 33, methyl [(1S)-1-({(2S)-2-[5-(9-{2-[(2S)-1-{(2S)-2-[(methoxycarbonyl)amino]-3-methylbutanoyl}pyrrolidin-2-yl]-1H-imidazol-5-yl}-12-oxo-12H-benzo[a]xanthen-3-yl)-1H-imidazol-2-yl]pyrrolidin-1-yl}carbonyl)-2-methylpropyl]carbamate], the IC50 in experiment [1] is 0.003 nM; in experiment [2], 14.1 nM; in experiment [3], 0.00333 nM; in experiment [4] it was 18.4 nM; in experiment [5] it was at least 1 nM.

The values are drawn from patent US10787441B2, “Hepatitis C virus inhibitors” (priority 2016, dated 2020).
